Experimental data reported in patent US20240175062A1, “LIPOXYGENASE-BASED RECOMBINANT MICROORGANISMS, AND METHOD FORPREPARING HYDROXY FATTY ACIDS AND SECONDARY FATTY ALCOHOLS USING SAME” (EWHA UNIVERSITY - INDUSTRY COLLABORATION FOUNDATION, priority 2021, published 2024).
Like-named read-outs stand apart in the source and are kept apart here.

Key:
[1] = target: Enhygromyxa salina-derived lipoxygenase (EsLOX) (Enhygromyxa salina, UniProt A0A0C2CV93); assay: Enzymatic activity of purified EsLOX for long-chain unsaturated fatty acids (UV-vis spectrophotometer, 234 nm); assay type: biochemical; settings: substrate of purified EsLOX, 50 mM EPPS (pH 8.5) buffer
Protocol: The culture medium was centrifuged at 13,000×g at 4° C. for 30 minutes and washed twice with phosphate-buffered saline, and added with 50 mM monosodium phosphate (NaH2PO4), 300 mM sodium chloride, 10 mM imidazole, 0.1 mM protease inhibitor (phenylmethylsulfonyl fluoride), and 400 U lysozyme, and then the cell solution was lysed with a sonicator. The cell lysate was centrifuged at 13,000×g at 4° C. for 10 minutes, and then the pellet was removed to separate only a cell supernatant. The cell supernatant was flowed onto a resin packed with an Ni-NTA agarose resin (Qiagen). The protein bound to the resin was washed with a wash buffer (50 mM NaH2PO4, 300 mM NaCl, 20/30 mM imidazole), eluted with an elution buffer (50 mM NaH2PO4, 300 mM NaCl, 250 mM imidazole) to purify Enhygromyxa lipoxygenase. Thereafter, a sample containing the purified Enhygromyxa lipoxygenase was prepared by obtaining a concentrated protein solution using 30 kDa Amicon.
Then, the enzymatic activity of the enzyme sample was measured using a UV-vis spectrophotometer (234 nm). More specifically, as the linoleic acid dioxygenation reaction progressed, the rate of increase in absorbance of a product, conjugated diene, was measured using the spectrophotometer, and the reaction time was measured for each of 10 seconds up to 180 seconds.

[2] = substrate: CCCCC/C=C\C/C=C\C/C=C\C/C=C\CCCC(=O)O; assay: cells, lysate or membranes named; settings: other: substrate of purified EsLOX, 234 nm, 50 mM EPPS (pH 8.5) buffer

Question: Which Km ([1]; read-out: KM) does the source give for `CC/C=C\C/C=C\C/C=C\CCCCCCCC(=O)O` [α-Linolenic acid, α-linolenic acid] here?
Answer: 120 µM

Question: `CCCCC/C=C\C/C=C\CCCCCCCC(=O)O` [Linoleic acid, linoleic acid] was tested. Which Km ([1]; read-out: KM) did it give?
Answer: 90 µM

Question: With `CCCCC/C=C\C/C=C\C/C=C\CCCCC(=O)O` [γ-Linolenic acid, γ-linolenic acid] as the molecule, how does the Km [1] read?
Answer: 130 µM

B1: Enhygromyxa salina-derived lipoxygenase (EsLOX) (Enhygromyxa salina) (protein)
chain: MSNIPTLPQNDPRPEQRAQQLDKARETYKYADLLPPLAFCEGVPKPDTPSAAWLVTVGKVAAAVALNAVANRRAWKRGDHDEEDASFDVGGTSEEDQNEAGHNSFLARLENFDEEAVSFAPGDEPSVLDEVNERVAAILGAKPNRHVPPAQADDDDNGDDGDGDESFGVLDGNVSKDGPNGRPQSMDDYANLFRRITLPPIASTWKNDSAFAAYRVAGPNASMIQRITELPDNFAVTDAHYKQAMGEGDSLDAAKAEGRLFLADWKLIGETLVNNTYKGAQKTVYAPLALFAVPPGGGSLAPVAIQPGQTPSPTNKIYATQDGNDWLAAKSAVQVAEGNYHELVSHLGLTHLLLEPIVMATYRQLAQHHPIYMLLIPHFEGTLSINNSAATNLIAPGGAVDLIFAGTIESEHQLALAALKRHDFMRSGLPDTIEQRGVGDTSVLTDYPYRDDGLKIWANIERWVTAYVNNYYISEANVTQDTELQAWAAVLSKPFAEGGVSGFGPIDTRAALIFACTKVIFTASAEHSAVNFPQKDLMSYAPAITGAGWTAAPPSQGPLKDFQPPLELAELQAEFLYLLGGVHHTKLGFYNSNSFPYRAWFKDPKITAELLPAFQRDLAASEELIVAANATRTFKYTYMIPSTIPMSINI
Question: For B1, which Km [2] is on record?
Answer: 80 µM

Question: What about the kcat/Km [2] of the same molecule?
Answer: 290000 M⁻¹ s⁻¹
